From patent US10287259B2, “Selenazolidine and thiazolidine compounds for treating cancer and other diseases” (The Penn State Research Foundation, priority 2016, dated 2019)

Tests used:
pancreatic cancer cells = test: MTT cell viability assay, pancreatic cancer (PC) cells; assay type: cell-based; settings: Pancreatic cancer cell
Protocol: (§1) MTT (3-(4,5-dimethylthiazol-2-yl)-2,5-diphenyltetrazolium) assay was performed to determine the effect of AS-10 on cancer cell viability (Plano et al., 2016, J. Med. Chem. 1946-1959; Alcolea et al., 2012, Eur. J. Med. Chem. 113:134-144; Kumar et al., 2014, Eur. J. Med. Chem. 81:267-276). Briefly, 3×10^3 cells were treated with different concentrations of AS-10 in triplicate in a 96-well plate for different time points. MTT solution (20 μL of 5.0 mg/mL solution) was added to each well, three hours prior to termination time point and incubated at 37° C. Resultant formazan crystals, at termination time point, were dissolved in 50 μL DMSO. The plate was subjected to a 96-well multiscanner (Dynex Technologies, MRX Revelation; Chantilly, Va., USA) for measuring the optical densities at 570 nm and 630 nm. IC50 values were determined by performing non-linear regression using Graphpad Prism software.

Panc-1 cells [1] = test: Muse caspase 3/7 activity assay; assay type: cell-based; settings: Panc-1, 10 μM
Protocol: To evaluate the efficacy of AS-10 in inducing caspase 3, Panc-1 cells were treated with AS-10 at different concentrations for different time points. Caspase 3/7 activity was measured using Muse Caspase-3/7 Assay kit with Muse cell analyzer (EMD Millipore, Billercia, Mass. USA) according to manufacturer's protocol (Plano et al., 2016, J. Med. Chem. 1946-1959). In brief, the Muse Caspase 3/7 kit contains a reagent namely NucView for detection of activated caspase 3/7. The reagent is cell membrane permeable and contains a DNA binding dye that is linked to a DEVD peptide substrate. In presence of activated caspase 3/7, DEVD is cleaved and DNA binding dye is released. Therefore, cells with active caspase 3/7 activity will yield high fluorescence. (Ref Millipore, Catlog No. MCH100108). The kit also contains a dead cell marker, 7-AAD, for detection of cells with compromised cell membrane. Data from Muse cell analyzer were analyzed using Muse 1.4 software.

[2] = tested on: HCT116 colon cancer xenograft; test: Colon cancer xenograft tumor inhibition; assay type: in vivo
Protocol: Athymic nude mice were used to evaluate the tumor inhibitory effect of AS-10 against a xenograft model of colon cancer. Approximately, 5×10^6 cells (HCT116) were inoculated into both left and right flanks of mice. After eight days, vehicle (DMSO) or AS-10 (45.2 mg/Kg) were injected via IP injection three times per week for 18 days.

LNCaP cells = test: MTT cell viability test, LNCaP; assay type: cell-based; settings: Homo sapiens, time and concentration dependent, read-out: EC50, growth inhibition of LNCaP cells
Protocol: as §1

Panc-1 cells [3] = test: Live/dead assay with calcein-AM and ethidium bromide; assay type: cell-based; settings: Panc-1, 48 h; AS-10 2.5 μM, gemcitabine 50 μM
Protocol: To determine the dead cell population, we used LIVE/DEAD Viability/Cytotoxicity Kit (L3224, Life technologies, USA). Panc-1 cells were treated with either DMSO, gemcitabine (50 μM), or AS-10 (2.5 μM) or in combination for 48 h. Live and dead cells were determined by subjecting treated cells to LIVE/DEAD Viability/Cytotoxicity Kit (Plano et al., 2016, J. Med. Chem. 1946-1959). […] While ethidium homodimer-1 can only enter cells who have lost their plasma membrane integrity or dead cells and fluorescents red. Stained cells were visualized using a fluorescence microscope (Zeiss—Axio Scope.A1) with a 20× objective lens. Percentage values of live and dead cells were calculated.

[4] = tested on: NCI-60 Human Tumor Cell Lines; test: NCI-60 Human Tumor Cell Lines Screen; assay type: cell-based
Protocol: AS-10 was submitted for National Cancer Institute's (NCI) Division of Cancer Treatment and Diagnosis (DCTD) for a single dose (10 μM for 72 h) screening on 60 different cancer cell lines (NCI-60 Human Tumor Cell Lines Screen, Developmental Therapeutic Program). The panel of cell lines included leukemia, non-small cell lung, colon, CNS, melanoma, ovarian, renal, prostate and breast cancer cell lines. […] AS-10 was screened against the same 60 cell lines at a dose of 0, 0.01, 0.1, 1, 10 and 100 μM for 72 h. […] Cell lines are grouped by the cancer type they represent. […] FIG. 16 is the tabular format of the effects of AS-10 on growth of all the tested cell lines.

Panc-1 cells [5] = test: Cell cycle analysis by flow cytometry; assay type: cell-based; settings: serum starved 72 h; 24 h to 60 h time points
Protocol: Flow cytometry was used to determine the cell cycle phases (Plano et al., 2016, J. Med. Chem. 1946-1959). In brief, Panc-1 cells were serum starved for 72 h, followed by treatment with different doses of AS-10 in 10% serum containing media for different time points. Treated cells were fixed in 70% cold ethanol at the end of each time point. Cells were fixed for a minimum of 4 h at 4° C. Following fixation, cells were washed with 1×PBS and were re-suspended in Propidium iodide (PI) staining solution (0.1% (v/v) triton X-100, 20 mg DNAse-free RNAse A and 2 mg of PI in 100 mL PBS). Cells were incubated in the staining solution for 15 minutes at room temperature and then analyzed by a BD FACS Calibur (BD Biosciences) for total DNA content. Modfit software (BD Biosciences) was used to obtain the histograms.

[6] = tested on: Mouse embryonic fibroblast cells (MEFs); test: cells; assay type: cell-based
Protocol: as §1
To determine that AS-10 was selectively toxic to cancer cells, the effect of AS-10 in normal Mouse embryonic fibroblast cells (MEFs) was tested using MTT assay. MEFs were treated with AS-10 for 48 h and the data was compared with Panc-1 cells, treated for 48 h. […] At the dose which yields 50 percent growth inhibition in PC cells, AS-10 had no effect on MEFs growth.

[7] = Maximum tolerated dose (MTD) / toxicology studies in mice

Compound: CC(=O)Oc1ccccc1C(=O)/N=C1\[Se]CCN1C(=O)c1ccccc1OC(C)=O [AS-10, 2-((3-(2-acetoxybenzoyl)-1,3-selenazolidin-2-ylidene)carbamoyl)phenyl acetate]
- EC50 (pancreatic cancer cells; in vitro, read-out: EC50, reduction of PC cell growth): 2500 to 5000 nM
- IC50 (pancreatic cancer cells; read-out: IC50, cytotoxicity to pancreatic cancer cells): 500 to 2500 nM
- mode of cell death (caspase 3/7 activity, Annexin V) (Panc-1 cells [1]): die in an apoptotic manner
- necrosis (cells only positive for 7-ADD) (Panc-1 cells [1]): did not induce necrosis
- systemic toxicity from body weights of mice ([2]; 45.2 mg/Kg IP three times per week for 18 days): no apparent no systemic toxicity
- tumor growth inhibition compared to vehicle treated mice ([2]; 45.2 mg/kg IP three times per week for 18 days, athymic nude mice): ~70%
- EC50 (LNCaP cells): 1700 to 2500 nM
- dead cells (Panc-1 cells [3]): ~10%
- selectivity among NCI-60 cell types ([4]; 0.01-100 μM, 72 h): most cytotoxic towards CNS, melanoma and renal cancer cell lines
- cell growth of NCI-60 cell lines ([4]; single dose 10 μM for 72 h): inhibited cell growth of all 60 cell lines
- cell cycle effect (Panc-1 cells [5]): cell cycle arrest in G1 and G2/M phase and total inhibition of S phase
- effect on MEFs growth [6]: no effect
- IC50 ([6]; Mus musculus, Fibroblast, read-out: IC50, normal (Mouse Embryonic Fibroblasts) cells): > 50000 nM
- safety margin, preliminary toxicology study in mice ([7]; mouse, in vivo): wide safety margin
- tolerability of AS-10 relative to Asp-SeCN (MTD) ([7]; nude mice): ~5 times
- MTD ([7]; nude, mouse, in vivo, ip): ~80 mg/kg
